One data set deals with T1, hERG potassium channel (Homo sapiens, UniProt Q12809).
T1 construct: host or cells: CHO
As to the kind of experiment: Manual patch-clamp of hERG potassium currents in CHO cells stably expressing hERG channel. It counts as cell-based. The note with it: read-out: IC50(μM), blocking effect on the hERG potassium ion channel. How it is done:
This example is intended to test the blocking effect of the compounds of the present disclosure on hERG potassium currents in a stable cell strain transfected with an hERG potassium channel by a manual patch-clamp assay.
The cells used in this experiment were from a CHO cell line (provided by Sophion Bioscience, Denmark) transfected with hERG cDNA and stably expressing hERG channel at cell passage number of P5. Cells were cultured in a medium containing the following components (all from Invitrogen): Ham's F12 medium, 10% (v/v) inactivated fetal bovine serum, […] hygromycin B, and […] geneticin. CHO hERG cells were grown in a culture dish containing the above culture medium and cultured in an incubator at 37° C. with 5% CO2. […]
In this experiment, a manual patch-clamp system (HEKA EPC-10 signal amplifier and digital conversion system, purchased from HEKA Electronics, Germany) was used for whole cell current recording. […] After the hERG potassium currents recorded in the above step were stable under the continuous extracellular fluid perfusion in the recording chamber, the drug to be tested could be added for perfusion until the inhibition effect of the drug on the hERG current reached a stable state. […]
The blocking effect of the compound of the present disclosure on hERG potassium currents was determined by the above test.

Data set [1] can be described thus: Pharmacokinetic evaluation in mice. The format is in vivo. To be noted: female, mouse, plasma, po, C57 mice, intragastric administration, 2 mg/kg. As to the method:
The drug concentration in the plasma of the test animals (mice) at different time points after intragastric administration (i.g.) of compound 18-p1 was determined by using an LC/MS/MS method. The pharmacokinetic behavior of the compound of the present disclosure in mice was studied and its pharmacokinetic profile was evaluated.
Nine C57 mice, female, purchased from Beijing Vital River Laboratory Animal Technology Co., Ltd., with animal production license number of SOCK (Shanghai) 2017-0005.
An amount of compound 18-p1 was weighed, dissolved with 5% by volume of DMSO and 5% tween 80 (Shanghai Titan Scientific Co., Ltd.), and then prepared into a 0.1 mg/mL clear solution with 90% normal saline.
Intragastric administration: the mice were intragastrically administered at a dose of 2.0 mg/kg and a volume of 20.0 mL/kg.
The compound 18-p1 was administered intragastrically to mice, and 0.1 mL of blood was collected from the orbit before administration and 0.25 h, 0.5 h, 1.0 h, 2.0 h, 4.0 h, 6.0 h, 8.0 h, 11.0 h and 24.0 h after administration. The blood was placed in an EDTA-K2 anticoagulation tube and centrifuged at 10,000 rpm for 1 min (4° C.), and plasma was separated out within 1 h and then stored at −20° C. for testing. The process from blood sampling to centrifugation was performed under an ice bath.
The content of the test compounds at different concentrations in plasma of mice after administration was determined: 10 μL of plasma of mice at each time point after administration was taken, and 200 μL of methanol (containing an internal standard solution camptothecin, 100 ng/mL) was added; the mixture was vortexed for 1 min, and centrifuged for 10 min (18,000 r/min). 3 μL of supernatant was taken from the plasma sample for LC/MS/MS analysis.

T1 sequence (Q12809 whole entry): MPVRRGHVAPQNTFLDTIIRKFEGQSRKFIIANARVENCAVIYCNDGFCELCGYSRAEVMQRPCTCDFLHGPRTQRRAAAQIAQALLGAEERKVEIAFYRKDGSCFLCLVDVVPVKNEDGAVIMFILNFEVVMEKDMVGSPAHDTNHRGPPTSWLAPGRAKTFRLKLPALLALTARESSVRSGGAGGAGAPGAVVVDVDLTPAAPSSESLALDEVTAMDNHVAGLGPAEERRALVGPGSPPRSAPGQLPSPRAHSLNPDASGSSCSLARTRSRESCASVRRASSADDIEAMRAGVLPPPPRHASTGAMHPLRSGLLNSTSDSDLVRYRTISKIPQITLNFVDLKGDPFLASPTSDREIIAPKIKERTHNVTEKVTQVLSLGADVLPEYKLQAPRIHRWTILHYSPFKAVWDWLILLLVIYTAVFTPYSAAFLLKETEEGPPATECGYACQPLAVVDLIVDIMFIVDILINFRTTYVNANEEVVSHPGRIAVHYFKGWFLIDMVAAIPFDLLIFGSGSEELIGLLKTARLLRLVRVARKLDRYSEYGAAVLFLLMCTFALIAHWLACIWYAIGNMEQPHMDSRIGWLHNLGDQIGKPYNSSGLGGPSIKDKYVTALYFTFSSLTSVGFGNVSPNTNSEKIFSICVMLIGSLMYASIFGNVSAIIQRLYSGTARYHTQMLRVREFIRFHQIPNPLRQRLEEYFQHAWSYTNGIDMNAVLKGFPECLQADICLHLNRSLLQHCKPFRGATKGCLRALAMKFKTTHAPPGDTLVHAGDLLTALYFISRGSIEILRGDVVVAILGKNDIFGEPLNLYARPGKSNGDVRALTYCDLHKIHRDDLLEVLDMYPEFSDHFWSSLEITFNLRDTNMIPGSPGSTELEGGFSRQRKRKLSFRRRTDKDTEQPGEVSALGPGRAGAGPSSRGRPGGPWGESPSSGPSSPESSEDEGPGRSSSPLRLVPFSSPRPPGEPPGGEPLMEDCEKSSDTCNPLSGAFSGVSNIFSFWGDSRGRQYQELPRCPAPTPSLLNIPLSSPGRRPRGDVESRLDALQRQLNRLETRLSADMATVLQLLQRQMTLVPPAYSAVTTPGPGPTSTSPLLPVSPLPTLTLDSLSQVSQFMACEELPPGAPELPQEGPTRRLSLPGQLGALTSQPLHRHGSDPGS

Turning to `Cc1nc(N[C@H](C)c2cccc(C(F)F)c2F)c2cc([C@]3(O)CC[C@@H](O)CC3)c(=O)[nH]c2n1` [Example 18-p1, 4-(((R)-1-(3-(difluoromethyl)-2-fluorophenyl)ethyl)amino)-6-((1s,4S)-1,4-dihydroxycyclohexyl)-2-methylpyrido[2,3-d]pyrimidin-7(8H)-one], the IC50 on hERG potassium channel is greater than 30 µM. Further, in data set [1] (read-out: Apparent distribution volume Vz/F), the Vd/F came out at 23.4 L/kg. The AUC(0-t) in data set [1] (read-out: Area under curve AUC0-t) was determined as 0.146 µg·h/mL. Moreover, the CL/F in data set [1] (read-out: Clearance CLz/F) turned out to be 13.5 L/h/kg. Moreover, in data set [1] (read-out: Half-life T½ (converted)), the half-life was 1.2 h. Moreover, the Cmax in data set [1] (read-out: Plasma concentration Cmax) was found to be 0.0567 µg/mL.

The values above are taken from patent US20230219951A1, “PYRIDINE-PYRIMIDINE DERIVATIVE, PREPARATION METHOD THEREFOR AND PHARMACEUTICAL USE THEREOF” (Jiangsu Hengrui Pharmaceuticals Co., Ltd., priority 2020, published 2023).
